We go through 6 molecules from US20220331257A1, “LIQUID PHARMACEUTICAL COMPOSITIONS WITH STABLE DRUG RELEASE PROFILES” (Avadel Legacy Pharmaceuticals, LLC, priority 2019, published 2022).

Series [1] can be described thus: Osmolality of saturated solutions of drugs in water (vapor pressure osmometer). It is filed as physicochemical.
A short description of series [2]: Solubility of drugs in water (saturated solutions). The settings on record: saturated solution in water.
A short description of series [3]: Osmolality of osmotic agent solutions (external phase). It is filed as physicochemical. Conditions: for Osmolality (extrapolated): third order polynomial fit. The source says:
In these attempts, the osmolality ratio of the composition was greater than 1 (measured at ambient temperature using a vapor pressure osmometer (model Vapro 5600 XR from ELITech/WESCOR) with a measurement range from 20 mosmol/kg to 3500 mosmol/kg).
To determine the osmolality of the external phase of the compositions, it was assumed that only the osmotic agent contributed to the external phase's osmolality because, in addition to the osmotic agent, the external phase contained only minimal amounts of the suspending agent (e.g., 0.1-0.2 wt %). Measurements were obtained experimentally up to 40 wt % sorbitol and up to 50 wt % maltitol and then extrapolated to 60 wt % using a fit with a third order polynomial form (Table 2). Measurements were also obtained for a commercially available sorbitol solution, NEOSORB® 70/70B, containing 70% of dry substance and a minimum of 74% sorbitol in the dry substance (Table 2).

Series [4] is described as follows: Saturation of the continuous phase by the drug. Format: physicochemical. The settings on record: continuous phase 60 wt % maltitol, 0.2 wt % xanthan gum, about pH 7.2. On the procedure: A “continuous phase” or “liquid phase” as used herein, refers to the fluid or liquid phase of the suspension in which the particles are dispersed. The continuous phase may not be saturated by the drug. “Not saturated by the drug” as used herein refers to the amount of drug in the continuous phase being less than the amount at which the continuous phase is saturated with the drug at the temperature at which the saturation is measured. The temperature at which saturation is measured corresponds to the temperature at which stability is performed. In an example, saturation is measured at 30° C.

SMILES strings stand for the structures.

Turning to `CC(=O)Nc1ccc(O)cc1` [Acetaminophen, acetaminophen], the “Osmolality of saturated solution” value is 74 mosmol/kg in series [1] (25° C.) and 112 mosmol/kg in series [1] (40° C.). The Solubility came to 14 mg/g in series [2] (25° C.) and 20 mg/g in series [2] (40° C.).

Take `CC(=O)Oc1ccccc1C(=O)O` [Aspirin, aspirin]: the Solubility in series [2] (25° C.) is reported as 2.5 mg/g.

Turning to `Cc1ccc(=O)n(-c2ccccc2)c1` [Pirfenidone, pirfenidone], in series [1] (25° C.), the “Osmolality of saturated solution” value was determined as 84 mosmol/kg. Besides, the Solubility in series [2] (25° C.) stood at 18 mg/g.

Regarding `OC[C@@H](O)[C@@H](O)[C@H](O)[C@@H](O)CO` [Sorbitol, sorbitol], the “Osmolality (experimental)” value in series [3] (dry matter content 5% (wt %)) was determined as 276 mOsm/kg sol; in series [3] (dry matter content 10% (wt %)) it was 599 mOsm/kg sol; in series [3] (dry matter content 15% (wt %)), 954 mOsm/kg sol; in series [3] (dry matter content 20% (wt %)), 1376 mOsm/kg sol; in series [3] (dry matter content 25% (wt %)) it was 1844 mOsm/kg sol; in series [3] (dry matter content 30% (wt %)) it was 2407 mOsm/kg sol. Moreover, the “Osmolality (experimental)” value in series [3] (dry matter content 40% (wt %)) is 4125 mOsm/kg sol. For the same molecule, the “Osmolality (extrapolated)” value in series [3] (dry matter content 5% (wt %)) is reported as 269 mOsm/kg; in series [3] (dry matter content 10% (wt %)), 610 mOsm/kg; in series [3] (dry matter content 15% (wt %)), 960 mOsm/kg; in series [3] (dry matter content 20% (wt %)), 1364 mOsm/kg; in series [3] (dry matter content 25% (wt %)), 1830 mOsm/kg; in series [3] (dry matter content 30% (wt %)), 2426 mOsm/kg. Moreover, the “Osmolality (extrapolated)” value in series [3] (dry matter content 40% (wt %)) was 4122 mOsm/kg; in series [3] (dry matter content 50% (wt %)), 6816 mOsm/kg; in series [3] (dry matter content 60% (wt %)) it was 10777 mOsm/kg.

As to `COc1ccccc1OCC(O)CO` (centres unmarked) [guaifenesin], the “saturation of the continuous phase by the drug” value in series [4] was 15.3 mg/g.

For `OC[C@@H](O)[C@@H](O[C@H]1O[C@H](CO)[C@@H](O)[C@H](O)[C@H]1O)[C@H](O)[C@@H](O)CO` [maltitol], the “Osmolality (experimental)” value in series [3] (dry matter content 10% (wt %)) worked out at 333 mOsm/kg sol; in series [3] (dry matter content 20% (wt %)) it was 779 mOsm/kg sol; in series [3] (dry matter content 30% (wt %)) it was 1340 mOsm/kg sol; in series [3] (dry matter content 40% (wt %)) it was 2265 mOsm/kg sol; in series [3] (dry matter content 50% (wt %)), 3882 mOsm/kg sol. Also, the “Osmolality (extrapolated)” value in series [3] (dry matter content 10% (wt %)) was 330 mOsm/kg; in series [3] (dry matter content 20% (wt %)), 791 mOsm/kg; in series [3] (dry matter content 30% (wt %)) it was 1322 mOsm/kg; in series [3] (dry matter content 40% (wt %)), 2277 mOsm/kg; in series [3] (dry matter content 50% (wt %)) it was 3879 mOsm/kg; in series [3] (dry matter content 60% (wt %)), 6538 mOsm/kg.
